What was measured:
[1] = system: TNFα production in LPS-stimulated human monocytes; test: Cot Monocyte TNFα Cell Based Assay; details: Homo sapiens, Monocyte, TNFα in LPS-stimulated human monocytes; read-out: EC50 TNF
Summary of the method: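 Cells at 5,000/well were pretreated with compound for 1 h at 37 °C (0.5% DMSO final), then stimulated with 50 pg/ml LPS for 4 h at 37 °C. Supernatant TNFα was measured by two-antibody TR-FRET after overnight room-temperature incubation; values are percent of control between unstimulated and stimulated wells.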

[2] = biological target: T1, human Cot catalytic domain (30-397 amino acids) (Homo sapiens, UniProt P41279); test: High Throughput Cot Biochemical Assay (KinEASE TR-FRET); details: Cot biochemical HTRF (KinEASE TR-FRET) assay; read-out: IC50 HTRF
T1 construct: Purified recombinant human Cot catalytic domain (30-397 amino acids) was purchased from Cama Biosciences; purchased Cama Biosciences (so in the source)
T1 sequence (P41279 30-397): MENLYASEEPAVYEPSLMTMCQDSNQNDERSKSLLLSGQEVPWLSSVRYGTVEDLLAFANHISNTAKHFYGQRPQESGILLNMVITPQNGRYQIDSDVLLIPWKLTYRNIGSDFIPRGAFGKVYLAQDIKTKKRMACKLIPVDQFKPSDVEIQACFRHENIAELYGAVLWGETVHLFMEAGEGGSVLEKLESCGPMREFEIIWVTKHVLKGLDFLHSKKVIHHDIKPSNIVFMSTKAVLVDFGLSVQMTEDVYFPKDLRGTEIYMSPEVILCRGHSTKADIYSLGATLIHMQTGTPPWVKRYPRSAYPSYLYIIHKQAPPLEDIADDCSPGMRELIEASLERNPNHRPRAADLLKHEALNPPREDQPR
Summary of the method: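 Reaction of 5 nM recombinant human Cot catalytic domain (aa 30-397) with 1 μM STK3 peptide (XL665-labeled) and 400 μM ATP in 10 mM MOPS pH 7.0, 10 mM MgOAc, 1 mM DTT, 0.5 mg/mL BSA, 0.1% DMSO. Phosphopeptide detected by TR-FRET with europium anti-phospho antibody.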

| EC50 [1] | IC50 [2] | Compound |
| --- | --- | --- |
| 585 nM | 47 nM | N#Cc1cnc2c(Cl)cc(N[C@@H](c3ccc(Cl)cc3)c3cn(C4COC4)nn3)cc2c1Nc1cnc(F)c(F)c1 [Example 494, (S)-8-chloro-6-(((4-chlorophenyl)(1-(oxetan-3-yl)-1H-1,2,3-triazol-4-yl)methyl)amino)-4-((5,6-difluoropyridin-3-yl)amino)quinoline-3-carbonitrile] |
| 641 nM | 32 nM | N#Cc1cnc2c(Cl)cc(N[C@@H](c3ccc(Cl)cc3)c3c[nH]nn3)cc2c1Nc1cnc(F)c(F)c1 [Example 495, (S)-8-chloro-6-(((4-chlorophenyl)(1H-1,2,3-triazol-4-yl)methyl)amino)-4-((5,6-difluoropyridin-3-yl)amino) quinoline-3-carbonitrile] |
| 1840 nM | 4 nM | CC(=O)N(C)c1cccc([C@H](Nc2cc(Cl)c3ncc(C#N)c(Nc4cnc(F)c(F)c4)c3c2)c2c[nH]nn2)c1 [Example 496, (S)-N-(3-(((8-chloro-3-cyano-4-((5,6-difluoropyridin-3-yl)amino)quinolin-6-yl)amino)(1H-1,2,3-triazol-4-yl)methyl)phenyl)-N-methylacetamide] |
| 985 nM | 26 nM | N#Cc1cnc2c(Cl)cc(N[C@@H](c3ccccc3)c3cn([C@@H]4CCN(C5COC5)C[C@H]4O)nn3)cc2c1Nc1ccc(F)c(Cl)c1 [Example 497, 8-chloro-4-((3-chloro-4-fluorophenyl)amino)-6-(((S)-(1-((3R,4R)-3-hydroxy-1-(oxetan-3-yl)piperidin-4-yl)-1H-1,2,3-triazol-yl)(phenyl)methyl)amino)quinoline-3-carbonitrile] |
| 520 nM | 8 nM | N#Cc1cnc2c(Cl)cc(N[C@@H](c3cccc(-c4ncco4)c3)c3c[nH]nn3)cc2c1Nc1cnc(F)c(F)c1 [Example 498, (S)-8-chloro-4-((5,6-difluoropyridin-3-yl)amino)-6-(((3-(oxazol-2-yl)phenyl)(1H-1,2,3-triazol-4-yl)methyl)amino) quinoline-3-carbonitrile] |
| 985 nM | 6 nM | N#Cc1cnc2c(Cl)cc(N[C@@H](c3cccc(-c4ncco4)c3)c3cn(C4COC4)nn3)cc2c1Nc1cnc(F)c(F)c1 [Example 499, (S)-8-chloro-4-((5,6-difluoropyridin-3-yl)amino)-6-(((3-(oxazol-2-yl)phenyl) (1-(oxetan-3-yl)-1H-1,2,3-triazol-4-yl)methyl)amino)quinoline-3-carbonitrile] |
| 2160 nM | 92 nM | N#Cc1cnc2c(Cl)cc(N[C@H](c3cn(C4COC4)nn3)c3c(F)cc(F)cc3F)cc2c1Nc1cnc(F)c(F)c1 [Example 500, (S)-8-chloro-4-((5,6-difluoropyridin-3-yl)amino)-6-(((1-(oxetan-3-yl)-1H-1,2,3-triazol-4-yl)(2,4,6-trifluorophenyl)methyl)amino)quinoline-3-carbonitrile] |
| 2140 nM | 94 nM | N#Cc1cnc2c(Cl)cc(N[C@H](c3cn(C4COC4)nn3)c3ccccc3C(F)(F)F)cc2c1Nc1cnc(F)c(F)c1 [Example 501, (S)-8-chloro-4-((5,6-difluoropyridin-3-yl)amino)-6-(((1-(oxetan-3-yl)-1H-1,2,3-triazol-4-yl)(2-(trifluoromethyl)phenyl)methyl)amino)quinoline-3-carbonitrile] |
| 1950 nM | 160 nM | N#Cc1cnc2c(Cl)cc(N[C@H](c3c[nH]nn3)c3ccccc3C(F)(F)F)cc2c1Nc1cnc(F)c(F)c1 [Example 502, (S)-6-(((1H-1,2,3-triazol-4-yl)(2-(trifluoromethyl)phenyl)methyl)amino)-8-chloro-4-((5,6-difluoropyridin-3-yl)amino)quinoline-3-carbonitrile] |
| 1690 nM | 98 nM | N#Cc1cnc2c(Cl)cc(N[C@H](c3c[nH]nn3)c3c(F)cc(F)cc3F)cc2c1Nc1cnc(F)c(F)c1 [Example 503, (S)-6-(((1H-1,2,3-triazol-4-yl)(2,4,6-trifluorophenyl)methyl)amino)-8-chloro-4-((5,6-difluoropyridin-3-yl)amino)quinoline-3-carbonitrile] |
| 8510 nM | 1780 nM | CC(C)(C)N1CCC(n2cc([C@@H](Nc3cc(Cl)c4ncc(C#N)c(N)c4c3)c3ccccc3)nn2)CC1 [Example 504, (S)-4-amino-6-(((1-(1-(tert-butyl)piperidin-4-yl)-1H-1,2,3-triazol-4-yl)(phenyl)methyl)amino)-8-chloroquinoline-3-carbonitrile] |
| 2620 nM | 240 nM | CC(C)(C)N1CCC(n2cc([C@@H](Nc3cc(Cl)c4ncc(C#N)c(Nc5ccc(F)c(C(F)(F)F)c5)c4c3)c3ccccc3)nn2)CC1 [Example 505, (S)-6-(((1-(1-(tert-butyl)piperidin-4-yl)-1H-1,2,3-triazol-4-yl)(phenyl)methyl)amino)-8-chloro-4-((4-fluoro-3-(trifluoromethyl)phenyl)amino)quinoline-3-carbonitrile] |
| 5290 nM | 1690 nM | CC(C)(C)N1CCC(n2cc([C@@H](Nc3cc(Cl)c4ncc(C#N)c(N[C@@H]5CCOc6ccccc65)c4c3)c3ccccc3)nn2)CC1 [Example 506, 6-(((S)-(1-(1-(tert-butyl)piperidin-4-yl)-1H-1,2,3-triazol-4-yl)(phenyl)methyl)amino)-8-chloro-4-(((R)-chroman-4-yl)amino)quinoline-3-carbonitrile] |
| 8510 nM | 741 nM | CC(C)(C)N1CCC(n2cc([C@@H](Nc3cc(Cl)c4ncc(C#N)c(N[C@H]5CCOc6ccccc65)c4c3)c3ccccc3)nn2)CC1 [Example 507, 6-(((S)-(1-(1-(tert-butyl)piperidin-4-yl)-1H-1,2,3-triazol-4-yl)(phenyl)methyl)amino)-8-chloro-4-(((S)-chroman-4-yl)amino)quinoline-3-carbonitrile] |
| > 10000 nM | 5350 nM | CCC(Nc1c(C#N)cnc2c(Cl)cc(N[C@@H](c3ccccc3)c3cn(C4CCN(C(C)(C)C)CC4)nn3)cc12)C1CCOCC1 (stereo partly drawn) [Example 508, 6-(((S)-(1-(1-(tert-butyl)piperidin-4-yl)-1H-1,2,3-triazol-4-yl)(phenyl)methyl)amino)-8-chloro-4-((1-(tetrahydro-2H-pyran-4-yl)propyl)amino)quinoline-3-carbonitrile] |
| 2990 nM | 206 nM | CC1CC(Nc2c(C#N)cnc3c(Cl)cc(N[C@@H](c4ccccc4)c4cn(C5CCN(C(C)(C)C)CC5)nn4)cc23)CC(C)O1 (stereo partly drawn) [Example 509, 6-(((S)-(1-(1-(tert-butyl)piperidin-4-yl)-1H-1,2,3-triazol-4-yl)(phenyl)methyl)amino)-8-chloro-4-((2,6-dimethyltetrahydro-2H-pyran-4-yl)amino) quinoline-3-carbonitrile] |
| 321 nM | 5 nM | CC(=O)N(C)c1cccc([C@H](Nc2cc(Cl)c3ncc(C#N)c(Nc4cnc(F)c(F)c4)c3c2)c2cn(CC(F)(F)F)nn2)c1 [Example 510, (S)-N-(3-(((8-chloro-3-cyano-4-((5,6-difluoropyridin-3-yl)amino)quinolin-6-yl)amino)(1-(2,2,2-trifluoroethyl)-1H-1,2,3-triazol-4-yl)methyl)phenyl)-N-methylacetamide] |
| 701 nM | 17 nM | N#Cc1cnc2c(Cl)cc(N[C@@H](c3ccc(F)cc3)c3cn(C4COC4)nn3)cc2c1Nc1cnc(F)c(F)c1 [Example 511, (S)-8-chloro-4-((5,6-difluoropyridin-3-yl)amino)-6-(((4-fluorophenyl)(1-(oxetan-3-yl)-1H-1,2,3-triazol-4-yl)methyl)amino)quinoline-3-carbonitrile] |
| 1100 nM | 85 nM | N#Cc1cnc2c(Cl)cc(N[C@@H](c3ccc(F)cc3)c3cn(CC(F)(F)F)nn3)cc2c1Nc1cnc(F)c(F)c1 [Example 512, (S)-8-chloro-4-((5,6-difluoropyridin-3-yl)amino)-6-(((4-fluorophenyl)(1-(2,2,2-trifluoroethyl)-1H-1,2,3-triazol-4-yl)methyl)amino)quinoline-3-carbonitrile] |
| 1340 nM | 22 nM | N#Cc1cnc2c(Cl)cc(N[C@@H](c3ccc(F)cc3)c3c[nH]nn3)cc2c1Nc1cnc(F)c(F)c1 [Example 513, (S)-8-chloro-4-((5,6-difluoropyridin-3-yl)amino)-6-(((4-fluorophenyl)(1H-1,2,3-triazol-4-yl)methyl)amino) quinoline-3-carbonitrile] |
| 62 nM | 2 nM | CCN1CC[C@@H](n2cc([C@@H](Nc3cc(Cl)c4ncc(C#N)c(Nc5ccc(F)c(Cl)c5)c4c3)c3ccccc3)nn2)[C@H](O)C1 [Example 514, 8-chloro-4-((3-chloro-4-fluorophenyl)amino)-6-(((S)-(1-((3R,4R)-1-ethyl-3-hydroxypiperidin-4-yl)-1H-1,2,3-triazol-4-yl)(phenyl)methyl)amino) quinoline-3-carbonitrile] |
| 324 nM | 1 nM | N#Cc1cnc2c(Cl)cc(N[C@@H](c3ccccc3)c3cn([C@@H]4CCNC[C@H]4O)nn3)cc2c1Nc1ccc(F)c(Cl)c1 [Example 515, 8-chloro-4-((3-chloro-4-fluorophenyl)amino)-6-(((S)-(1-((3R,4R)-3-hydroxypiperidin-4-yl)-1H-1,2,3-triazol-4-yl)(phenyl)methyl)amino) quinoline-3-carbonitrile] |
| 92 nM | 4 nM | CCN1CCC(n2cc([C@@H](Nc3cc(Cl)c4ncc(C#N)c(Nc5cccc(Cl)c5)c4c3)c3ccccc3)nn2)[C@H](O)C1 (stereo partly shown) [Example 516] |

From patent publication US10316017B2, “COT modulators and methods of use thereof” (Gilead Sciences, Inc., priority 2015, dated 2019)
